Values of other authors, collected in patent US9326930B2, “Calcium sequestration compositions and methods of treating skin pigmentation disorders and conditions” (NEOCUTIS S.A., priority 2009, dated 2016).

Experiments:
[1] = test system: melanocyte-keratinocyte co-cultures; settings: intracellular calcium in keratinocytes chelated
B16F0 melanoma cells = settings: L-forms, not D-forms
[2] = target: melanocortin receptor 1 (MC1R) (Homo sapiens, UniProt Q01726)
melanocortin receptor 1 (MC1R), sequence (Q01726 whole entry, species assumed): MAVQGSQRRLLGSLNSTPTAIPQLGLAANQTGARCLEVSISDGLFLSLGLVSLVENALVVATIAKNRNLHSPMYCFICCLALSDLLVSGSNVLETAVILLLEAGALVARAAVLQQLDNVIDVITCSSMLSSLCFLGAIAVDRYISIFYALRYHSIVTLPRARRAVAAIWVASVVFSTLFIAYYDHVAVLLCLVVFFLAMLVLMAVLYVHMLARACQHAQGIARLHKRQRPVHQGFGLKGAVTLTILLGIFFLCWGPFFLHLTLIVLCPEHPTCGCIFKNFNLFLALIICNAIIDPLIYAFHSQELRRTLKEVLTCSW

Structure (SMILES) | effect on pigmentation (B16F0 melanoma cells) | further results
CC(=O)OCOC(=O)CN(CC(=O)OCOC(C)=O)c1ccccc1OCCOc1ccccc1N(CC(=O)OCOC(C)=O)CC(=O)OCOC(C)=O [BAPTA-AM, 1,2-bis-(o-aminophenoxy)-ethane-N,N,N′,N′-tetraacetic acid tetra-acetoxymethyl ester] | – | melanin transfer [1]: melanin transfer was inhibited
C[C@H](N)C(=O)O [L-alanine] | hypopigmenting effects | –
CC[C@H](C)[C@H](N)C(=O)O [L-isoleucine] | hypopigmenting effects | –
CC(C)C[C@H](N)C(=O)O [L-leucine] | hypopigmenting effects | –
NCC(=O)O [glycine] | hypopigmenting effects | –
C=CCCCCCCCCC(=O)N[C@@H](Cc1ccccc1)C(=O)O [undecylenoyl phenylalanine] | – | affinity to MC1R [2]: affinity towards MC1R; action on α-MSH ([2]; in vitro): antagonist of α-MSH
